# Measured values as given in PMC10545747, “Development of cyclopeptide inhibitors of cGAS targeting protein-DNA interaction and phase separation” (Nature Communications, 2023).
# Where “and” joins values, the source holds several entries; their conditions need not be identical. Identical values can stand only once. Entries after “also recorded” stand apart in the source; their conditions may differ. Like-named read-outs stand apart in the source and are kept apart here. Square brackets hold non-standard residues; d marks the D form. Peptide text beside a SMILES is read from it.
# Tests used:
# [1] = tested on: HSV-1-infected THP1 cells; assay: qPCR of IFNB1/CXCL10/IL6 mRNA in THP1 cells stimulated by HSV-1 infection; format: cell-based, human
# Jurkat cells = tested on: Jurkat cells
# Procedure: Cell viability was measured by cell counting kit-8 (TargetMol) according to the manufacturer’s instructions.
# Supplementary Fig. 3. […] (a) L929 cells were pretreated for
# 4 h with DMSO or the indicated doses of XQ2, followed by stimulation with dsDNA for 4 h, and then cell lysates were
# (b) Jurkat cells were exposed to the indicated doses of XQ2, and then stimulated with
# Data are representative of three independent experiments in (a, b). (Data are presented as mean ± SD, n = 3 independent
# provided as a Source Data file.
# (1 picture or pasted object on this page, not shown here)
# physchem = assay: physchem
# Procedure: Supplementary Fig. 7. […] (a) THP1 cells were exposed to the indicated doses of XQ2 or XQ2B for 48h. The cell viability was measured by CCK8 assay. (b) The comparison of solubility of XQ2 and XQ2B. The maximum concentration of XQ2 or XQ2B dissolved in water was measured by a spectrophotometer at 280nm. […]
# Data are representative of three independent experiments with similar results in (e), or three independent experiments in (a -d, f, g) . (Data are presented as mean ± SD, n = 3 independent samples in (a-d, f, g), ns, not significant, **p < 0.01, ***p < 0.001, ****p < 0.0001 using one-way ANOV A with Dunnett’s post hoc test). Source data are provided as a Source Data file.
# primary human PBMCs = assay: qPCR of IFNB1 and IL6 mRNA in ISD-stimulated PBMCs; format: cell-based; parameters: key to IFNB1 mRNA, qPCR, Fig. 2c / IL6 mRNA, qPCR, Fig. 2c / IFNB1 mRNA (Fig. S7f) / IL6 mRNA (Fig. S7f): relative mRNA level, target CT normalized to GAPDH CT; conditions: 10 μM
# Procedure: The indicated cells were stimulated with either ISD (Sangon Biotech), HSV-1 (Provided by Dr. Zhengfan Jiang), HSV60mer (Sangon Biotech), SATE-cddA[70], 2’3’-cGAMP (Invivogen, Cat# tlrl-nacga23-1), ADU-S100 (MedChemExpress, Cat# HY-12885A) or Poly(I:C) (Invivogen, Cat# tlrl-pic) after XQ2 or XQ2B treatment. Total RNA was isolated from indicated cells that incubated with the drugs for indicated time or mice tissues by using NucleoZOL reagent (MACHEREY-NAGEL) according to the manufacturer’s instructions. The quantifications of mRNA levels were carried out by real-time PCR using a PerfectStart® Uni RT&qPCR Kit (TransGen Biotech) on the QuantStudio 5 qPCR machine (Applied Biosystems). Samples were carried out in triplicate and the target CT values were normalized to GAPDH CT values. Primers of qPCR used in this study can be found in Supplementary Table S2.
smiles,measurement,setting,value
"CC(C)C[C@@H]1NC(=O)[C@H](CCCNC(=N)N)NC(=O)[C@H](C(C)C)NC(=O)[C@@H]2CCCN2C(=O)[C@@H](Cc2ccccc2)NC(=O)[C@H](CC(C)C)NC(=O)[C@H](CCCNC(=N)N)NC(=O)[C@H](C(C)C)NC(=O)[C@H](C)NC(=O)[C@@H](Cc2ccccc2)NC1=O [XQ2, Cyclo (LfAVRLfPVR)] (cyclo(L[dF]AVRL[dF]PVR))",IL6 mRNA (Fig. S2b),"[1]; HSV-1, XQ2 0.63 μM",98.3879 and 100.916 and 99.3832
same,CXCL10 mRNA (Fig. S2b),"[1]; HSV-1, XQ2 1.25 μM",13878.7 and 14634.4 and 14561.7
same,IFNB1 mRNA (Fig. S2b),"[1]; HSV-1, XQ2 1.25 μM",97.5861 and 86.027 and 97.3512
same,IL6 mRNA (Fig. S2b),"[1]; HSV-1, XQ2 1.25 μM",83.7674 and 88.7511 and 90.6215
same,CXCL10 mRNA (Fig. S2b),"[1]; HSV-1, XQ2 2.5 μM",11116.4 and 12643.3 and 12467.1
same,IFNB1 mRNA (Fig. S2b),"[1]; HSV-1, XQ2 2.5 μM",73.1655 and 85.1476 and 97.1694
same,IL6 mRNA (Fig. S2b),"[1]; HSV-1, XQ2 2.5 μM",59.5539 and 58.6936 and 59.7795
same,CXCL10 mRNA (Fig. S2b),"[1]; HSV-1, XQ2 5 μM",4443.66 and 5989.75 and 4916.38
same,IFNB1 mRNA (Fig. S2b),"[1]; HSV-1, XQ2 5 μM",58.3528 and 60.5599 and 78.4822
same,IL6 mRNA (Fig. S2b),"[1]; HSV-1, XQ2 5 μM",37.2474 and 41.0154 and 36.4161
same,CXCL10 mRNA (Fig. S2b),"[1]; HSV-1, XQ2 10 μM",610.463 and 931.698 and 780.881
same,IFNB1 mRNA (Fig. S2b),"[1]; HSV-1, XQ2 10 μM",20.0242 and 25.5972 and 33.1577
same,CXCL10 mRNA (Fig. S2b),"[1]; Mock, XQ2 0.31 μM",0.6255 and 0.7855 and 0.8542
same,IFNB1 mRNA (Fig. S2b),"[1]; Mock, XQ2 0.31 μM",0.7527 and 0.6452 and 0.8722
same,IL6 mRNA (Fig. S2b),"[1]; Mock, XQ2 0.31 μM",0.9875 and 1.125 and 1.458
same,CXCL10 mRNA (Fig. S2b),"[1]; Mock, XQ2 0.63 μM",0.4588 and 0.432 and 0.4044
same,IFNB1 mRNA (Fig. S2b),"[1]; Mock, XQ2 0.63 μM",0.713 and 0.5919 and 0.8053
same,IL6 mRNA (Fig. S2b),"[1]; Mock, XQ2 0.63 μM",1.48 and 1.078 and 1.222
same,CXCL10 mRNA (Fig. S2b),"[1]; Mock, XQ2 1.25 μM",1.308 and 1.359 and 1.615
same,IFNB1 mRNA (Fig. S2b),"[1]; Mock, XQ2 1.25 μM",0.9026 and 1.107 and 1.382
same,CXCL10 mRNA (Fig. S2b),"[1]; Mock, XQ2 2.5 μM",3.137 and 2.991 and 2.833
same,IFNB1 mRNA (Fig. S2b),"[1]; Mock, XQ2 2.5 μM",1.426 and 1.751 and 1.799
same,IL6 mRNA (Fig. S2b),"[1]; Mock, XQ2 2.5 μM",2.387 and 2.459 and 3.439
same,CXCL10 mRNA (Fig. S2b),"[1]; Mock, XQ2 5 μM",1.923 and 2.134 and 2.246
same,IFNB1 mRNA (Fig. S2b),"[1]; Mock, XQ2 5 μM",1.17 and 1.093 and 1.0788
same,CXCL10 mRNA (Fig. S2b),"[1]; Mock, XQ2 10 μM",4.593 and 4.941 and 4.3739
same,IFNB1 mRNA (Fig. S2b),"[1]; Mock, XQ2 10 μM",1.523 and 2.285 and 2.284
same,IL6 mRNA (Fig. S2b),"[1]; Mock, XQ2 10 μM",4.656 and 4.111 and 3.925
same,"HSV-1-induced IFNB1, CXCL10, IL6 expression",[1]; THP1,"inhibited the expression level of IFNΒ1 and CXCL10, as well as IL6"
same,"IFNB1 mRNA, qPCR, Fig. 2b","[1]; THP1, HSV-1, 10 μM",17.701 and 20.2819 and 20.0106
same,ISD-induced cell death,Jurkat cells,markedly suppressed ISD-induced cell death
same,solubility,physchem,low solubility at higher concentrations
same,solubility,"physchem; Concentration (solubility, Fig. S7b)",860 µg/mL
same,ISD-induced IFNB1 and IL6 expression in PBMCs,primary human PBMCs,markedly suppressed the expression of IFNB1 and IL6; also recorded: significantly inhibit the activation of cGAS induced by ISD
same,"IFNB1 mRNA, qPCR, Fig. 2c","primary human PBMCs; PBMCs, ISD",362.804 and 380.938 and 448.513
same,"IL6 mRNA, qPCR, Fig. 2c","primary human PBMCs; PBMCs, ISD",261.548 and 423.427 and 399.836
